Measured values as given in patent publication US9730944B2, “Antiviral activity of novel bicyclic heterocycles” (priority 2010, dated 2017).

Columns and labels:
[1] = tested on: genotype 1a H-77 replicon; test: HCV-1a replicon potency in RLuc-1 cells, bioluminescence; assay type: cell-based; settings: for HCV-1a Replicon Selectivity Index: CC50/EC50, genotype 1a replicon; for EC50: Hepatitis C virus, 72 h, read-out: HCV-1a Replicon EC50 (μM)
[2] = Cytotoxicity in HCV-1a replicon cells, Promega CellTiter-Glo cell viability assay

Row | Structure (SMILES) | HCV-1a Replicon Selectivity Index [1] | EC50 [1] [µM] | CC50 at 72 h [2] [µM]
1 | Nc1nc(N2CCN(C(=O)COc3ccc(Cl)cc3)CC2)c2nc(C3CCCCC3)sc2n1 [Example 120, 5-amino-7-[4-(4-chlorophenoxyacetyl)piperazin-1-yl]-2-cyclohexylthiazolo[5,4-d]pyrimidine] | 2.1 | 6.4 | 13.4
2 | Nc1nc(N2CCN(C(=O)COc3ccc(Cl)cc3)CC2)c2nc(-c3cccnc3)sc2n1 [Example 121a, 5-amino-7-[4-(4-chlorophenoxyacetyl)piperazin-1-yl]-2-(pyridine-3-yl)thiazolo[5,4-d]pyrimidine] | >888 | 0.05 | > 44.4
3 | Nc1nc(N2CCN(C(=O)COc3ccc(Cl)cc3)CC2)c2nc(Cc3ccc(Cl)cc3)sc2n1 [Example 122, 5-amino-7-[4-(4-chlorophenoxyacetyl)piperazin-1-yl]-2-(4-chlorophenylmethyl)thiazolo[5,4-d]pyrimidine] | 5.8 | 4.7 | 26.8
4 | CC(c1ccc(Cl)cc1)c1nc2c(N3CCN(C(=O)COc4ccc(Cl)cc4)CC3)nc(N)nc2s1 (centres unmarked) [Example 125, 5-amino-7-[4-(4-chlorophenoxyacetyl)piperazin-1-yl]-2-(1-(4-chlorophenyl)ethyl)thiazolo[5,4-d]pyrimidine] | 1.1 | 22.6 | 24.4
5 | Cc1cccc(NC(=O)N2CCN(c3nc(N)nc4sc(CCc5ccc(F)cc5)nc34)CC2)c1 [Example 133, 5-amino-2-[2-(4-fluorophenyl)ethyl]-7-(4-m-tolylcarbamoylpiperazin-1-yl)-thiazolo[5,4-d]pyrimidine] | 1.5 | 10.7 | 15.8
6 | Nc1nc(N2CCN(C(=O)COc3ccccc3)CC2)c2nc(CCc3ccc(F)cc3)sc2n1 [Example 134, 5-amino-2-[2-(4-fluorophenyl)ethyl]-7-(4-[2-phenoxyacetyl]piperazin-1-yl)-thiazolo[5,4-d]pyrimidine] | – | > 44.4 | > 44.4
7 | Nc1nc(N2CCN(S(=O)(=O)Cc3ccccc3)CC2)c2nc(CCc3ccc(F)cc3)sc2n1 [Example 137, 5-amino-2-[2-(4-fluorophenyl)ethyl]-7-[4-phenylmethanesulfonylpiperazin-1-yl]-thiazolo[5,4-d]pyrimidine] | 0.8 | 26.9 | 21.8
8 | Nc1nc(N2CCN(CC(=O)NCCc3ccccc3)CC2)c2nc(CCc3ccc(F)cc3)sc2n1 [Example 141, 5-amino-2-[2-(4-fluorophenyl)ethyl]-7-(4-(phenethylcarbamoyl-methyl)piperazin-1-yl)-thiazolo[5,4-d]pyrimidine] | 1.0 | 15.8 | 16
9 | Nc1nc(N2CC[C@@H](NC(=O)COc3ccc(Cl)cc3)C2)c2nc(CCc3ccc(F)cc3)sc2n1 [Example 143, 5-amino-2-[2-(4-fluorophenyl)ethyl]-7-(3-(R)-[2-(4-chlorophenoxy)-acetylamino]pyrrolidin-1-yl)-thiazolo[5,4-d]pyrimidine] | 0.7 | > 44.4 | 30.4
10 | Nc1nc(NC2CCCN(C(=O)OCc3ccccc3)C2)c2nc(CCc3ccc(F)cc3)sc2n1 (centres unmarked) [Example 145, 5-amino-2-[2-(4-fluorophenyl)ethyl]-7-(1-benzyloxycarbonylpiperidin-3-ylamino)-thiazolo[5,4-d]pyrimidine] | 2.1 | 13.1 | 27.6
11 | Nc1nc(N[C@H]2CCN(C(=O)COc3ccc(Cl)cc3)C2)c2nc(CCc3ccc(F)cc3)sc2n1 [Example 147, 5-amino-2-[2-(4-fluorophenyl)ethyl]-7-(1-(4-chlorophenoxyacetyl)pyrrolidin-3-(S)-ylamino)-thiazolo[5,4-d]pyrimidine] | 0.5 | 31 | 15.5
12 | CCC(c1ccc(F)cc1)c1nc2c(N3CCN(C(=O)COc4ccc(Cl)cc4)CC3)nc(N)nc2s1 (centres unmarked) [Example 150, 5-amino-2-[1-(4-fluorophenyl)propyl]-7-(4-[2-(4-chlorophenoxy)acetyl]piperazin-1-yl)thiazolo[5,4-d]pyrimidine] | 2.0 | 13.1 | 25.9
13 | Nc1nc(N2CCN(C(=O)COc3ccc(Cl)cc3)CC2)c2nc(C(c3ccc(F)cc3)C3CCCC3)sc2n1 (centres unmarked) [Example 151, 5-amino-2-[cyclopentyl-(4-fluorophenyl)methyl]-7-(4-[2-(4-chlorophenoxy)acetyl]piperazin-1-yl)thiazolo[5,4-d]pyrimidine] | 2.1 | 14.7 | 31.2
14 | Nc1nc(N2CCN(C(=O)COc3ccc(Cl)cc3)CC2)c2nc(CCc3cccs3)sc2n1 [Example 154, 5-amino-2-(2-thiophen-2-ylethyl)-7-(4-[2-(4-chloro-phenoxy)acetyl]piperazin-1-yl)thiazolo[5,4-d]pyrimidine] | – | > 44.4 | > 44.4
15 | Nc1nc(N2CCN(C(=O)c3ccc(Cl)cc3)CC2)c2nc(CCc3cccs3)sc2n1 [Example 156, 5-amino-2-(2-thiophen-2-ylethyl)-7-(4-(4-chloro-benzoyl)piperazin-1-yl)thiazolo[5,4-d]pyrimidine] | 1.5 | 20.7 | 30.7
16 | Cc1cccc(NC(=O)N2CCN(c3nc(N)nc4oc(CCc5ccc(F)cc5)nc34)CC2)c1 [Example 196, 5-amino-2-[2-(4-fluorophenyl)ethyl]-7-(4-m-tolylcarbamoylpiperazin-1-yl)-oxazolo[5,4-d]pyrimidine] | 1.6 | 15.6 | 24.5
17 | Nc1nc(N2CCN(C(=O)COc3ccc(Cl)cc3)CC2)c2cc(-c3ccccc3)sc2n1 [Example 329, 1-(4-(2-amino-6-phenylthieno[2,3-d]pyrimidin-4-yl)piperazin-1-yl)-2-(4-chlorophenoxy)ethanone] | 3.8 | 11.8 | > 44.4
18 | Cc1cccc(NC(=O)N2CCN(c3nc(N)nc4sc(-c5ccccc5)cc34)CC2)c1 [Example 330, 4-(2-amino-6-phenylthieno[2,3-d]pyrimidin-4-yl)-N-m-tolylpiperazine-1-carboxamide] | 6.0 | 7.2 | 43.5
19 | Nc1nc(N2CCN(C(=O)Nc3ccc(Cl)cc3)CC2)c2cc(-c3ccccc3)sc2n1 [Example 331, 4-(2-amino-6-phenylthieno[2,3-d]pyrimidin-4-yl)-N-(4-chlorophenyl)piperazine-1-carboxamide] | 1.8 | 18.7 | 34.3
20 | Nc1nc(N2CCN(C(=O)COc3ccccc3)CC2)c2cc(-c3ccccc3)sc2n1 [Example 332, 1-(4-(2-amino-6-phenylthieno[2,3-d]pyrimidin-4-yl)piperazin-1-yl)-2-phenoxyethanone] | 0.9 | > 44.4 | 38.5
21 | COc1ccc(-c2nc3c(N4CCN(C(=O)COc5ccc(Cl)cc5)CC4)nc(N)nc3[nH]2)cc1OC [Example 390, 1-(4-(2-amino-8-(3,4-dimethoxyphenyl)-9H-purin-6-yl)piperazin-1-yl)-2-(4-chlorophenoxy)ethanone] | 9.9 | 1.7 | 17.3
22 | Nc1nc(N2CCN(C(=O)COc3ccc(Cl)cc3)CC2)c2nc(-c3ccc(Cl)cc3)[nH]c2n1 [Example 392, 1-(4-(2-amino-8-(4-chlorophenyl)-9H-purin-6-yl)piperazin-1-yl)-2-(4-chlorophenoxy)ethanone] | 4.6 | 2.7 | 12.2
23 | Nc1nc(N2CCN(C(=O)COc3ccc(Cl)cc3)CC2)c2nc(-c3cccc(Cl)c3)[nH]c2n1 [Example 393, 1-(4-(2-amino-8-(3-chlorophenyl)-9H-purin-6-yl)piperazin-1-yl)-2-(4-chlorophenoxy)ethanone] | 2.5 | 3.2 | 8.1
24 | Nc1nc(N2CCN(C(=O)COc3ccc(Cl)cc3)CC2)c2nc(-c3ccc(C(F)(F)F)cc3)[nH]c2n1 [Example 394, 1-(4-(2-amino-8-(4-(trifluoromethyl)phenyl)-9H-purin-6-yl)piperazin-1-yl)-2-(4-chlorophenoxy)ethanone] | 1.2 | 9 | 10.6
25 | Nc1nc(N2CCN(C(=O)COc3ccc(Cl)cc3)CC2)c2nc(-c3ccc(OC(F)(F)F)cc3)[nH]c2n1 [Example 395, 1-(4-(2-amino-8-(4-(trifluoromethoxy)phenyl)-9H-purin-6-yl)piperazin-1-yl)-2-(4-chlorophenoxy)ethanone] | 1.1 | 9.9 | 10.7
26 | CC(C)(C)c1nc2c(N3CCN(C(=O)COc4ccc(Cl)cc4)CC3)nc(N)nc2[nH]1 [Example 399, 1-(4-(2-amino-8-tert-butyl-9H-purin-6-yl)piperazin-1-yl)-2-(4-chlorophenoxy)ethanone] | 1.2 | 24.7 | 29.1
27 | COc1cccc(C(=O)N2CCN(c3nc(N)nc4[nH]c(-c5ccc(F)cc5)nc34)CC2)c1 [Example 402, (4-(2-amino-8-(4-fluorophenyl)-9H-purin-6-yl)piperazin-1-yl)(3-methoxyphenyl)methanone] | – | > 44.4 | > 44.4
28 | Nc1nc(N2CCN(C(=O)Cc3cccs3)CC2)c2nc(-c3ccc(F)cc3)[nH]c2n1 [Example 403, 1-(4-(2-amino-8-(4-fluorophenyl)-9H-purin-6-yl)piperazin-1-yl)-2-(thiophen-2-yl)ethanone] | 0.8 | 11.3 | 9.6
29 | CC(=O)N1CCN(c2nc(N)nc3[nH]c(-c4ccc(F)cc4)nc23)CC1 [Example 408, 1-(4-(2-amino-8-(4-fluorophenyl)-9H-purin-6-yl)piperazin-1-yl)ethanone] | – | > 44.4 | > 44.4
